In PMC11492426, “Design, synthesis, and biological evaluation of novel quinoline-based EGFR/HER-2 dual-target inhibitors as potential anti-tumor agents” (RSC Advances, 2024):

Tests used:
Caspase-3 = Caspase-3 activation assay in MCF-7 cells; assay type: cell-based, human
Bcl-2 = Bcl-2 inhibition assay in MCF-7 cells; assay type: cell-based, human
Protocol: Additionally, the treatment led to a notable reduction in anti-apoptotic Bcl-2 expression levels, with a fold decrease of roughly 6 for compound 3e and 8 for compound 5a. Compounds 3e and 5a markedly elevated the Bax/Bcl-2 ratio compared to the control untreated cells. […]
4.2.8. Bcl-2 inhibition assay
Mix all reagents thoroughly without foaming before use. Wash the microwells twice with approximately 300 μL Wash Buffer per well with thorough aspiration of microwell contents between washes. Take caution not to scratch the surface of the microwells. After the last wash, empty the wells and tap microwell strips on absorbent pad or paper towel to remove excess Wash Buffer. Use the microwell strips immediately after washing or place upside down on a wet absorbent paper for not […]
longer than 15 minutes. […] Add 100 μL of Sample Diluent in duplicate to all standard wells and to the blank wells. Prepare standard (1:2 dilution) in duplicate ranging from 32 ng/mL to 0.5 ng/mL. Add 100 μL of Sample Diluent, in duplicate, to the blank wells. Add 80 μL of Sample Diluent, in duplicate, to the sample wells. Add 20 μL of each Sample, in duplicate, to the designated wells. Add 50 μL of diluted biotin-conjugate to all wells, including the blank wells. Cover with a plate cover and incubate at room temperature, on a microplate shaker at 100 rpm if available, for 2 hours. Remove plate cover and empty the wells. Wash microwell strips 3 times as described in step 2. Add 100 μL of diluted Streptavidin-HRP to all wells, including the blank wells. Cover with a plate cover and incubate at room temperature, on a microplate shaker at 100 rpm if available, for 1 hour. Remove plate cover and empty the wells. Wash microwell strips 3 times as described in step 2.
Proceed to the next step. Pipette 100 μl of mixed TMB Substrate Solution to all wells, including the blanks. Incubate the microwell strips at room temperature (18° to 25°C) for about 15 minutes, if available on a rotator set at 100 rpm. Avoid direct exposure to intense light. The point, at which the substrate reaction is stopped, is often determined by the ELISA reader. Many ELISA readers record absorbance only up to 2.0 O.D. Therefore, the color development within individual microwells must be watched by the person running the assay and the substrate reaction stopped before positive wells are no longer properly detectable. Stop the enzyme reaction by quickly pipetting 100 μL of Stop Solution into each well, including the blank wells. It is important that the Stop Solution is spread quickly and uniformly throughout the microwells to completely inactivate the enzyme. Results must be read immediately after the Stop Solution is added or within one hour if the microwell strips are stored at 2 - 8°C in the dark. Read absorbance of each microwell on a spectrophotometer using 450 nm as the primary wavelength.
4.3. Statistical analysis
Computerized Prism 5 program was used to statistically analyzed data using one-way ANOVA test followed by Tukey’s as post ANOVA for multiple comparison at P ≤.05. Data were presented as […]

Caspase-8 = Caspase-8 activation assay in MCF-7 cells; assay type: cell-based, human
Bax = Bax activation assay in MCF-7 cells; assay type: cell-based, human
Protocol: This lysate was diluted in Standard Diluent Buffer over the range of the assay and measured for human active caspase-8 content. (Cells are Plated in a density of 1.2 – 1.8 × 10,000 cells/well in a volume of 100µl complete growth medium + 100 ul of the tested compound per well in a 96-well plate for 24 hours before the enzyme assay for […].). […]
4.2.7. Bax activation assay
Bring all reagents, except the human Bax-α Standard, to room temperature for at least 30 minutes prior to opening. The human Bax-α Standard solution should not be left at room temperature for more than 10 minutes. All standards, controls and samples should be run in duplicate. Refer to the Assay Layout Sheet to determine the number of wells to be used and put any remaining wells with the desiccant back into the pouch and seal the ziploc. Store unused wells at 4 °C. Pipet 100 μL of Assay Buffer into the S0 (0 pg/mL standard) wells. Pipet 100 μL of Standards #1 through #6 into the appropriate wells. Pipet 100 μL of the Samples into the appropriate wells. Tap the plate gently to mix the contents. Seal the plate and incubate at room temperature on a plate shaker for 1 hour at ~500 rpm. Empty the contents of the wells and wash by adding 400 μL of wash solution to every well.
Repeat the wash 4 more times for a total of 5 washes. After the final wash, empty or aspirate the wells and firmly tap the plate on a lint free paper towel to remove any remaining wash buffer. Pipet 100 μL of yellow Antibody into each well, except the Blank. Seal the plate and incubate at room temperature on a plate shaker for 1 hour at ~500 rpm. Empty the contents of the wells and wash by adding 400 μL of wash solution to every well. Repeat the wash 4 more times for a total of 5 washes.
After the final wash, empty or aspirate the wells and firmly tap the plate on a lint free paper towel to remove any remaining wash buffer. Add 100 μL of blue Conjugate to each well, except the Blank.
Seal the plate and incubate at room temperature on a plate shaker for 30 minutes at ~500 rpm. Empty the contents of the wells and wash by adding 400 μL of wash solution to every well. Repeat the wash 4 more times for a total of 5 washes. After the final wash, empty or aspirate the wells and firmly tap […]
the plate on a lint free paper towel to remove any remaining wash buffer. Pipet 100 μL of Substrate Solution into each well. Incubate for 30 minutes at room temperature on a plate shaker at ~500 rpm.
Pipet 100 μL Stop Solution to each well. Blank the plate reader against the Blank wells, read the optical density at 450 nm. Calculate the average net Optical Density (OD) bound for each standard and sample by subtracting the average Blank OD from the average OD for each standard and sample.
Using linear graph paper, plot the Average Net OD for each standard versus Bax concentration in each standard. Approximate a straight line through the points. The concentration of Bax in the unknowns can be determined by interpolation. […]
Remove plate cover and empty the wells. […]
Incubate the microwell strips at room temperature (18° to 25°C) for about 15 minutes, if

[1] = Cell viability assay (MTT) on MCF-10A normal cells; assay type: cell-based; conditions: human, MCF-10A mammary gland epithelial normal cells, MCF-10A cells, four-day incubation
Protocol: The impact of compounds 3a–h and 5a–d on cell viability was evaluated using the human mammary (MCF-10A) gland epithelium normal cell line. The MTT assay was used to evaluate the cell viability of 3a–h and 5a–d after a four-day incubation period on MCF-10A cells.[46] Refer to Appendix A for more details.
The effect of new compounds 3a–h and 5a–d on cell viability was evaluated using the MCF-10A (human mammary gland epithelium) normal cell line.
4.2. Biological evaluation
4.2.1 Cell Viability assay (MTT assay)
MTT assay was performed to investigate the effect of the synthesized compounds on mammary epithelial cells (MCF-10A). The cells were propagated in medium consisting of Ham's F-12 medium/ Dulbecco's modified Eagle's medium (DMEM) (1:1) supplemented with 10% foetal calf serum, 2 mM glutamine, insulin (10 μg/mL), hydrocortisone (500 ng/mL) and epidermal growth factor (20 ng/mL). Trypsin ethylenediamine tetra acetic acid (EDTA) was used to passage the cells after every 2-3 days. 96-well flat-bottomed cell culture plates were used to seed the cells at a density of 10^4 cells mL-1. The medium was aspirated from all the wells of culture plates after 24 h followed by the addition of synthesized compounds (in 200 μL medium to yield a final concentration of 0.1% (v/v) dimethyl sulfoxide) into individual wells of the plates. Four wells were designated to a single compound. The plates were allowed to incubate at 37°C for 96 h. Afterwards, the medium was aspirated and 3-[4,5-dimethylthiazol-2-yl]-2,5-diphenyltetrazolium bromide (MTT) (0.4 mg/mL) in medium was added to each well and subsequently incubated for 3 h. The medium was aspirated and 150 μL dimethyl sulfoxide (DMSO) was added to each well. The plates were vortexed followed by the measurement of absorbance at 540 nm on a microplate reader. The results were presented as inhibition (%) of proliferation in contrast to controls comprising 0.1% DMSO.

[2] = tested on: A-549 lung cancer cell line; assay: Antiproliferative assay, A-549; assay type: cell-based; conditions: Homo sapiens, A549; A-549 lung cancer cells; read-out: Antiproliferative activity IC50 ± SEM, A-549
[3] = tested on: four human cancer cell lines (A-549, MCF-7, Panc-1, HT-29); assay: Antiproliferative assay, average over four cancer cell lines; assay type: cell-based; conditions: average IC50 over the four cancer cell lines
[4] = tested on: Panc-1 pancreatic cancer cell line; assay: Antiproliferative assay, Panc-1; assay type: cell-based; conditions: Homo sapiens; Panc-1 pancreatic cancer cells; read-out: Antiproliferative activity IC50 ± SEM, Panc-1
[5] = tested on: MCF-7 breast cancer cell line; assay: Antiproliferative assay, MCF-7; assay type: cell-based; conditions: Homo sapiens, MCF7; MCF-7 breast cancer cells; read-out: Antiproliferative activity IC50 ± SEM, MCF-7
[6] = tested on: HT-29 colon cancer cell line; assay: Antiproliferative assay, HT-29; assay type: cell-based; conditions: Homo sapiens; HT-29 colon cancer cells; read-out: Antiproliferative activity IC50 ± SEM, HT-29

melting point | IC50 [2] | GI50 ([3]; Homo sapiens) | IC50 [4] | IC50 [5] | IC50 [6] | GI50 [3] | SMILES | Caspase-3 Conc. (Caspase-3; treated at IC50 concentration) | Caspase-3 Fold change (Caspase-3; versus untreated control) | Bcl-2 Conc. (Bcl-2; treated at IC50 values) | Bcl-2 Fold reduction (Bcl-2; versus untreated control) | Caspase-8 Conc. (Caspase-8; treated at IC50 concentration) | Caspase-8 Fold change (Caspase-8; versus untreated control) | Bax Conc. (Bax; treated at IC50 values) | Bax Fold change (Bax; versus untreated control) | viability at 96 h, 50 µM [1]
– | – | – | – | – | – | – | CN[C@@H]1C[C@H]2O[C@@](C)([C@@H]1OC)n1c3ccccc3c3c4c(c5c6ccccc6n2c5c31)C(=O)NC4 [Staurosporine, reference compound] | 465 ± 4 pg/mL | 7 | 1.00 ng/mL | 5 | 1.60 ± 0.10 ng/mL | 18 | 288 ± 2 pg/mL | 32 | –
310 to 312 °C | 72 ± 7 nM | 72 nM | 74 ± 7 nM | 69 ± 6 nM | 74 ± 7 nM | – | O=c1[nH]c2ccccc2c(O)c1/C=N/c1nc(-c2ccccc2)n[nH]1 [Compound 3a, (E) 4-hydroxy-3-(((3-phenyl-1H-1,2,4-triazol-5-yl)imino)methyl)quinolin-2(1H)-one] | – | – | – | – | – | – | – | – | 89%
– | 62 ± 6 nM | 63 nM | 65 ± 6 nM | 59 ± 5 nM | 64 ± 6 nM | – | Cc1ccc2[nH]c(=O)c(/C=N/c3nc(-c4ccncc4)n[nH]3)c(O)c2c1 [Compound 3f, (E)-4-hydroxy-6-methyl-3-(((3-(pyridin-4-yl)-1H-1,2,4-triazol-5-yl)imino)methyl) quinolin-2(1H)-one] | – | – | – | – | – | – | – | – | 90%
330 to 332 °C | 50 ± 5 nM | 51 nM | 54 ± 5 nM | 46 ± 4 nM | 52 ± 4 nM | – | COc1ccc2[nH]c(=O)c(/C=N/c3nc(-c4ccccc4)n[nH]3)c(O)c2c1 [Compound 3c, (E)-4-hydroxy-6-methoxy-3-(((3-phenyl-1H-1,2,4-triazol-5-yl)imino)methyl) quinolin-2(1H)-one] | – | – | – | – | – | – | – | – | 87%
– | 64 ± 6 nM | 82 nM | 64 ± 6 nM | 60 ± 6 nM | 66 ± 6 nM | 64 nM | COc1ccc2[nH]c(=O)c(/C=N/c3nc(-c4ccncc4)n[nH]3)c(O)c2c1 [Compound 3g, (E)-4-hydroxy-6-methoxy-3-(((3-(pyridin-4-yl)-1H-1,2,4-triazol-5-yl)imino)methyl) quinol-in-2(1H)-one] | – | – | – | – | – | – | – | – | 89%
– | 53 ± 5 nM | 53 nM | 54 ± 5 nM | 49 ± 4 nM | 55 ± 5 nM | – | COc1ccc2[nH]c(=O)c(C=Nc3ccc(NS(=O)(=O)c4ncccn4)cc3)c(O)c2c1 [Compound 5c, N-(4-(((4-hydroxy-6-methoxy-2-oxo-1,2-dihydroquinolin-3-yl)methylene)amino)phenyl)pyrimidine-2-sulfonamide] | – | – | – | – | – | – | – | – | 86%
310 to 312 °C | 82 ± 8 nM | 82 nM | 86 ± 8 nM | 78 ± 7 nM | 82 ± 8 nM | – | Cn1c(=O)c(/C=N/c2nc(-c3ccncc3)n[nH]2)c(O)c2ccccc21 [Compound 3h, (E)-4-hydroxy-1-methyl-3-(((3-(pyridin-4-yl)-1H-1,2,4-triazol-5-yl)imino)methyl) quinolin-2(1H)-one] | – | – | – | – | – | – | – | – | 85%
295 to 297 °C | 76 ± 7 nM | 76 nM | 76 ± 7 nM | 74 ± 7 nM | 77 ± 7 nM | – | Cn1c(=O)c(/C=N/c2nc(-c3ccccc3)n[nH]2)c(O)c2ccccc21 [Compound 3d, (E)-4-hydroxy-1-methyl-3-(((3-phenyl-1H-1,2,4-triazol-5-yl)imino)methyl)quinolin-2(1H)-one] | – | – | – | – | – | – | – | – | 89%
325 to 327 °C | 70 ± 6 nM | 70 nM | 70 ± 6 nM | 67 ± 6 nM | 71 ± 6 nM | – | Cc1ccc2[nH]c(=O)c(/C=N/c3nc(-c4ccccc4)n[nH]3)c(O)c2c1 [Compound 3b, (E) 4-hydroxy-6-methyl-3-(((3-phenyl-1H-1,2,4-triazol-5-yl)imino)methyl)quinolin-2(1H)-one] | – | – | – | – | – | – | – | – | 90%
